“And” between values parts separate entries of the source, which are not always exact repeats. Equal values may be shown once. Toxic doses and inconclusive results are not listed.
Tested on: BDF1 mice, P815 leukemia ip, survival T/C
Assay: NCI In Vivo Anticancer Drug Screen. Data for tumor model P815 Mast Cell Leukemia (Ascitic) (intraperitoneal) in B6D2F1 (BDF1) mice
Conditions: endpoint: survival time, mean or median, higher = longer survival
Procedure: The antitumor activity of compounds was measured in mice bearing transplantable tumors. Survival or tumor size were measured and the results are expressed as the measurement made in the treated group (T) divided by the measurement made in the vehicle treated control group (C). The tumor model used in this assay is P815 Mast Cell Leukemia (Ascitic) (intraperitoneal) in B6D2F1 (BDF1) mice

[1] = dose: 2.0 mg/kg/injection, schedule: Q01DX010 (ip), vehicle: saline
[2] = dose: 4.0 mg/kg/injection, schedule: Q01DX010 (ip), vehicle: saline
[3] = dose: 3.13 mg/kg/injection, schedule: Q01DX010 (ip), vehicle: saline
[4] = dose: 6.25 mg/kg/injection, schedule: Q01DX010 (ip), vehicle: saline
[5] = dose: 12.5 mg/kg/injection, schedule: Q01DX010 (ip), vehicle: saline

CC[C@]1(O)C[C@H]2CN(CCc3c([nH]c4ccccc34)[C@@](C(=O)OC)(c3cc4c(cc3OC)N(C=O)[C@H]3[C@@](O)(C(=O)OC)[C@H](OC(C)=O)[C@]5(CC)C=CCN6CC[C@]43[C@@H]65)C2)C1
T/C (dose: 0.09 mg/kg/injection, schedule: Q01DX015 (ip), vehicle: carboxymethylcellulose (CMC)): 185 % of control | T/C (dose: 0.13 mg/kg/injection, schedule: Q01DX015 (ip), vehicle: carboxymethylcellulose (CMC)): 183 % of control | T/C (dose: 0.2 mg/kg/injection, schedule: Q01DX015 (ip), vehicle: carboxymethylcellulose (CMC)): 213 % of control | T/C (dose: 0.2 mg/kg/injection, schedule: Q01DX015 (ip), vehicle: saline): 107 % of control | T/C (dose: 0.3 mg/kg/injection, schedule: Q01DX015 (ip), vehicle: carboxymethylcellulose (CMC)): 183 % of control | T/C (dose: 0.3 mg/kg/injection, schedule: Q01DX015 (ip), vehicle: saline): 95 % of control | T/C (dose: 0.45 mg/kg/injection, schedule: Q01DX015 (ip), vehicle: carboxymethylcellulose (CMC)): 102 % of control | T/C (dose: 0.8 mg/kg/injection, schedule: Q01DX001 (ip), vehicle: saline): 170 % of control | T/C (dose: 1.8 mg/kg/injection, schedule: Q01DX001 (ip), vehicle: saline): 153 % of control | T/C (dose: 4.3 mg/kg/injection, schedule: Q01DX001 (ip), vehicle: saline): 113 % of control | T/C (dose: 12.5 micrograms/kg/injection, schedule: Q01DX015 (ip), vehicle: carboxymethylcellulose (CMC)): 116 % of control | T/C (dose: 25.0 micrograms/kg/injection, schedule: Q01DX015 (ip), vehicle: carboxymethylcellulose (CMC)): 120 % of control | T/C (dose: 100.0 micrograms/kg/injection, schedule: Q01DX015 (ip), vehicle: carboxymethylcellulose (CMC)): 170 % of control | T/C (dose: 150.0 micrograms/kg/injection, schedule: Q01DX015 (ip), vehicle: saline): 158 % of control

Nc1nc(F)nc2c1ncn2C1OC(CO)C(O)C1O (stereo not drawn)
T/C (dose: 0.5 mg/kg/injection, schedule: Q01DX010 (ip), vehicle: saline): 100 % of control | T/C (dose: 0.75 mg/kg/injection, schedule: Q01DX015 (ip), vehicle: saline): 99 % of control | T/C (dose: 1.0 mg/kg/injection, schedule: Q01DX010 (ip), vehicle: saline): 100 % of control and 112 % of control | T/C (dose: 1.5 mg/kg/injection, schedule: Q01DX015 (ip), vehicle: saline): 98 % of control | T/C [1]: 100 % of control and 112 % of control | T/C [2]: 100 % of control and 112 % of control | T/C (dose: 8.0 mg/kg/injection, schedule: Q01DX010 (ip), vehicle: saline): 88 % of control

Nc1nc(=S)c2[nH]cnc2[nH]1
T/C (dose: 2.5 mg/kg/injection, schedule: Q01DX010 (ip), vehicle: saline): 95 % of control | T/C (dose: 5.0 mg/kg/injection, schedule: Q01DX010 (ip), vehicle: saline): 122 % of control | T/C (dose: 10.0 mg/kg/injection, schedule: Q01DX010 (ip), vehicle: saline): 90 % of control and 118 % of control

O=C(O)CCCc1ccc(N(CCCl)CCCl)cc1
T/C [3]: 100 % of control | T/C [4]: 105 % of control | T/C [5]: 122 % of control

O=C(Nc1ccc(NC2=NCCN2)cc1)c1ccc(C(=O)Nc2ccc(NC3=NCCN3)cc2)cc1
T/C [1]: 110 % of control and 111 % of control | T/C [2]: 105 % of control and 113 % of control

[I][Hg][CH2]C1COC([CH2][Hg][I])CO1 (stereo not drawn)
T/C [3]: 90 % of control | T/C [4]: 90 % of control | T/C [5]: 95 % of control | T/C (dose: 25.0 mg/kg/injection, schedule: Q01DX010 (ip), vehicle: saline): 90 % of control

Clc1ncnc2nc[nH]c12
T/C (dose: 7.5 mg/kg/injection, schedule: Q01DX010 (ip), vehicle: saline): 100 % of control | T/C (dose: 9.5 mg/kg/injection, schedule: Q01DX010 (ip), vehicle: saline): 100 % of control | T/C (dose: 15.0 mg/kg/injection, schedule: Q01DX010 (ip), vehicle: saline): 100 % of control | T/C (dose: 30.0 mg/kg/injection, schedule: Q01DX010 (ip), vehicle: saline): 100 % of control | T/C (dose: 60.0 mg/kg/injection, schedule: Q01DX010 (ip), vehicle: saline): 104 % of control and 109 % of control

Reference: PubChem BioAssay AID318 (DTP/NCI, 2004)
